From patent US20260174875A1 (Novo Nordisk A/S, priority 2023, published 2026)
Read-outs that look alike come from different tables or passages of the source.

Assays:
Assay type in all cases: cell-based
[1] = biological target: T1, human GLP-1 receptor (hGLP-1R) (Homo sapiens, UniProt P43220); assay: GLP-1 receptor assay, method B (CRE-luciferase reporter, BHK cells, 384-well)
T1 construct: expressed in transfected cells

[2] = biological target: T2, human GIP receptor (hGIPR) (Homo sapiens, UniProt P48546); assay: GIP receptor assay, method B (CRE-luciferase reporter, BHK cells, 384-well)
T2 construct: expressed in transfected cells
T2 sequence (P48546 22-466): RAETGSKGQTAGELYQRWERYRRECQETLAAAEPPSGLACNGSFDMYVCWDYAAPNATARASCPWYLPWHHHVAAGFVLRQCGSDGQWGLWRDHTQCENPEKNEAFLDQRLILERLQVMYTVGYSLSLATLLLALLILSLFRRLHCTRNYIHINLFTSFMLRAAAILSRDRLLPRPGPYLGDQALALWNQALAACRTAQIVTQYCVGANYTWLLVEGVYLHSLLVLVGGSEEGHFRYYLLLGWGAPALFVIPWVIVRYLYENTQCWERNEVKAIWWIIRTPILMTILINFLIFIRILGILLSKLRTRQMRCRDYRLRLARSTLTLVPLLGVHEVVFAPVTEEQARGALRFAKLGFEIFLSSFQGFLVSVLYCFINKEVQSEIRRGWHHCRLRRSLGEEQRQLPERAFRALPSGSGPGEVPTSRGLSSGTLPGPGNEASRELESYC

[3] = biological target: T3, human amylin receptor (hAMYR3) (Homo sapiens, UniProt O60896+P30988); assay: Amylin receptor assay, method B (CRE-luciferase reporter, BHK cells)
T3 construct: host or cells: BHK cells (Hollex-1 line expressing hCTR(a) and CRE-Luc), further transfected with human RAMP3
Protocol: To assess how the activation of the receptors is potentially influenced by the presence of human serum albumin (HSA), the in vitro assays were performed in the absence of HSA and presence of 1% (w/v) HSA.
It is thus possible to measure hAMYR3 activity using a CRE-luciferase reporter gene introduced into Baby Hamster Kidney (BHK) cells co-expressing the hAMYR3.
The cell line was further transfected with human receptor modifying protein 3 (RAMP3) using standard methods.
After centrifugation, the cell pellet was resuspended and diluted to approximately 2.5-4.0×10^6 (2.5E+6 to 4.0E+6) cells/mL in Recovery™ Cell Culture Freezing Medium (Gibco, 12648-010). Cells were aliquoted and stored at −180° C. until use.
The assay buffer consisted of DMEM without phenol red (Gibco, 11880-028) supplemented with 1× GlutaMAX (Gibco, 35050-038), 10 mM HEPES (Gibco, 15630-056) and 1% (w/v) ovalbumin (Sigma, A5503) either with or without 0.1% (v/v) Pluronic F-68 (Gibco, 24040-032) and either with or without HSA (Sigma, A9511).
To perform the assay, hAMYR3 BHK Cre-Luc cells were thawed, washed once in PBS (Gibco 14190-094) and seeded in 40 μL growth medium in a white 384-well culture plate (PerkinElmer/Revvity, 6007688) at a cell density of 4.0×10^3 (4.0E+3) cells/well the day before the experiment. The plate was incubated over night at 37° C. in 5% CO2. […] Serial dilutions were then mixed in a new 96-well plate with equal volume (1:1:1 ratio) of assay buffer and either assay buffer without or with 3% HSA (Sigma, A-9511). Twenty microliters of the solution mix were transferred to the cells which previously were washed once with PBS (Gibco 14190-094). After a short centrifugation, the assay plates were incubated for 3 hours at 37° C. in 5% CO2 and let to equilibrated at room temperature for 10 minutes before the addition of 30 μL steadylite Plus™ PerkinElmer/Revvity, 6066759) per well. Plates were sealed and incubated at room temperature with gentle shaking for 30 minutes while protected from light. Luminescence was detected on a luminescence plate reader e.g., a Synergy 2 (BioTek).

[4] = hGLP-1R Potency, 1% HSA, EC50, methods B, in the presence of 1% HSA
[5] = method B, absence of HSA, read-out: hGLP-1R Potency, no HSA, EC50
[6] = hGIPR Potency, 1% HSA, EC50, methods B, in the presence of 1% HSA
[7] = method B, absence of HSA, read-out: hGIPR Potency, no HSA, EC50
[8] = hAMYR3 Potency, 1% HSA, EC50, methods B, in the presence of 1% HSA
[9] = method B, absence of HSA, read-out: hAMYR3 Potency, no HSA, EC50

T3 sequence (P30988 25-474): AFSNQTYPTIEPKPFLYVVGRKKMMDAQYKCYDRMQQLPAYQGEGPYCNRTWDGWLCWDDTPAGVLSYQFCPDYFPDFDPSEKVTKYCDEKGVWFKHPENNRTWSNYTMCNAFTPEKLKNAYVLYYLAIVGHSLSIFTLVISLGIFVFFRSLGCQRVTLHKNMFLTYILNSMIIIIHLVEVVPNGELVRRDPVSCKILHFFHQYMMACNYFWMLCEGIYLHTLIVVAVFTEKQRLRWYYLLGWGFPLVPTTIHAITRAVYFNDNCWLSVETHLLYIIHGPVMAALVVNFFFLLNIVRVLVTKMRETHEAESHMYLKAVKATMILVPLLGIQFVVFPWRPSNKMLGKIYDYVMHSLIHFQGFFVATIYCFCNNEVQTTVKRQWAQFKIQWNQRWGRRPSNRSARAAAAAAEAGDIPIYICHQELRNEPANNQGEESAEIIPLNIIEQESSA
T3 sequence (O60896 24-148): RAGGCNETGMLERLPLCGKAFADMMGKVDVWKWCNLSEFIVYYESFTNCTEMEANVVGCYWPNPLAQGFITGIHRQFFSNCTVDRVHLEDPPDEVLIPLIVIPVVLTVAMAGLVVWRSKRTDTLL
T1 sequence (P43220 24-463): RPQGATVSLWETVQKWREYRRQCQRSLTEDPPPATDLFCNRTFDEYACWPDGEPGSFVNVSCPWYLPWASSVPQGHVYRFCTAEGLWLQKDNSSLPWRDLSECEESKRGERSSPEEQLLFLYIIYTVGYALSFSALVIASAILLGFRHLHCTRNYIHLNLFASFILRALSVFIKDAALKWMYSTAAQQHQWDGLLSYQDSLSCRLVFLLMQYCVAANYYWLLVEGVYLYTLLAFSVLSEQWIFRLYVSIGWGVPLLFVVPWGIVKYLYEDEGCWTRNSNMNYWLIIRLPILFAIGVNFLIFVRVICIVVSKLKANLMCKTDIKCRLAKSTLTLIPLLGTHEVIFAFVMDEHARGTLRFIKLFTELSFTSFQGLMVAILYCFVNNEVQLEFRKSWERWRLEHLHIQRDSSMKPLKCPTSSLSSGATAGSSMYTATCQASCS

EC50 [1, 4] [pM]	EC50 [1, 5] [pM]	EC50 [2, 6] [pM]	EC50 [2, 7] [pM]	EC50 [3, 8] [pM]	EC50 [3, 9] [pM]	SMILES
72.6	27.7	13.9	3.99	950	9.67	CC[C@H](C)[C@H](NC(=O)[C@H](CCC(=O)O)NC(=O)[C@H](CCC(=O)O)NC(=O)[C@H](CC(C)C)NC(=O)[C@H](CC(C)C)NC(=O)[C@@H](NC(=O)[C@H](CO)NC(=O)[C@H](Cc1ccc(O)cc1)NC(=O)[C@H](CC(=O)O)NC(=O)[C@H](CO)NC(=O)[C@@H](NC(=O)[C@H](Cc1ccccc1)NC(=O)[C@@H](NC(=O)CNC(=O)[C@H](CCC(=O)O)NC(=O)C(C)(C)NC(=O)[C@@H](N)Cc1ccc(O)cc1)[C@@H](C)O)[C@@H](C)O)[C@@H](C)CC)C(=O)N[C@@H](C)C(=O)N[C@@H](C)C(=O)N[C@@H](CCCNC(=N)N)C(=O)N[C@@H](CCC(=O)O)C(=O)N[C@@H](Cc1ccccc1)C(=O)N[C@H](C(=O)N[C@@H](CCC(=O)O)C(=O)N[C@@H](Cc1c[nH]c2ccccc12)C(=O)N[C@@H](CC(C)C)C(=O)N[C@@H](CC(C)C)C(=O)N[C@@H](C)C(=O)NCC(=O)NCC(=O)N1CCC[C@H]1C(=O)N[C@@H](CO)C(=O)N[C@@H](CO)C(=O)NCC(=O)N[C@@H](C)C(=O)NCC(=O)N[C@@H](CCC(N)=O)C(=O)N[C@@H](C)C(=O)N1CCC[C@H]1C(=O)N[C@@H](CCC(=O)O)C(=O)N[C@@H](CCC(N)=O)C(=O)N[C@@H](C)C(=O)N1CCC[C@H]1C(=O)NCC(=O)N[C@@H](C)C(=O)N[C@@H](CO)C(=O)N[C@@H](Cc1c[nH]cn1)C(=O)N[C@@H](CC(C)C)C(=O)N[C@@H](CO)C(=O)N[C@H](C(=O)N[C@@H](C)C(=O)N[C@@H](CCC(N)=O)C(=O)N[C@H](C(=O)N[C@@H](CCC(N)=O)C(=O)N[C@@H](CCCNC(=N)N)C(=O)N[C@@H](CC(C)C)C(=O)N[C@@H](CO)C(=O)N[C@@H](C)C(=O)N[C@@H](CCC(=O)O)C(=O)N[C@@H](CC(C)C)C(=O)N[C@@H](Cc1c[nH]cn1)C(=O)N[C@@H](CCCCNC(=O)COCCOCCNC(=O)COCCOCCNC(=O)CC[C@H](NC(=O)CCCCCCCCCCCCCCCCCCC(=O)O)C(=O)O)C(=O)N[C@@H](CC(C)C)C(=O)N[C@@H](C)C(=O)N[C@H](C(=O)N[C@@H](CC(C)C)C(=O)N1CCC[C@H]1C(=O)N[C@@H](CCCNC(=N)N)C(=O)N[C@H](C(=O)N[C@@H](CCC(=O)O)C(=O)N[C@H](C(=O)NCC(=O)N[C@@H](CO)C(=O)NCC(=O)N[C@@H](CO)C(=O)N1CCC[C@H]1C(N)=O)[C@@H](C)O)[C@@H](C)O)[C@@H](C)O)[C@@H](C)O)[C@@H](C)O)[C@@H](C)CC [Compound 151]
67.4	22.4	11.4	3.83	914	8.5	CC[C@H](C)[C@H](NC(=O)[C@H](CCC(=O)O)NC(=O)[C@H](CCC(=O)O)NC(=O)[C@H](CC(C)C)NC(=O)[C@H](CC(C)C)NC(=O)[C@@H](NC(=O)[C@H](CO)NC(=O)[C@H](Cc1ccc(O)cc1)NC(=O)[C@H](CC(=O)O)NC(=O)[C@H](CO)NC(=O)[C@@H](NC(=O)[C@H](Cc1ccccc1)NC(=O)[C@@H](NC(=O)CNC(=O)[C@H](CCC(=O)O)NC(=O)C(C)(C)NC(=O)[C@@H](N)Cc1ccc(O)cc1)[C@@H](C)O)[C@@H](C)O)[C@@H](C)CC)C(=O)N[C@@H](C)C(=O)N[C@@H](C)C(=O)N[C@@H](CCCNC(=N)N)C(=O)N[C@@H](CCC(=O)O)C(=O)N[C@@H](Cc1ccccc1)C(=O)N[C@H](C(=O)N[C@@H](CCC(=O)O)C(=O)N[C@@H](Cc1c[nH]c2ccccc12)C(=O)N[C@@H](CC(C)C)C(=O)N[C@@H](CC(C)C)C(=O)N[C@@H](C)C(=O)NCC(=O)NCC(=O)N1CCC[C@H]1C(=O)N[C@@H](CO)C(=O)N[C@@H](CO)C(=O)NCC(=O)N[C@@H](C)C(=O)NCC(=O)N[C@@H](CCC(N)=O)C(=O)N[C@@H](C)C(=O)N1CCC[C@H]1C(=O)NCC(=O)N[C@@H](CCC(=O)O)C(=O)N[C@@H](C)C(=O)N1CCC[C@H]1C(=O)NCC(=O)N[C@@H](C)C(=O)N[C@@H](CO)C(=O)N[C@@H](Cc1c[nH]cn1)C(=O)N[C@@H](CC(C)C)C(=O)N[C@@H](CO)C(=O)N[C@H](C(=O)N[C@@H](C)C(=O)N[C@@H](CCC(N)=O)C(=O)N[C@H](C(=O)N[C@@H](CCC(N)=O)C(=O)N[C@@H](CCCNC(=N)N)C(=O)N[C@@H](CC(C)C)C(=O)N[C@@H](CO)C(=O)N[C@@H](C)C(=O)N[C@@H](CCC(=O)O)C(=O)N[C@@H](CC(C)C)C(=O)N[C@@H](Cc1c[nH]cn1)C(=O)N[C@@H](CCCCNC(=O)COCCOCCNC(=O)COCCOCCNC(=O)CC[C@H](NC(=O)CCCCCCCCCCCCCCCCCCC(=O)O)C(=O)O)C(=O)N[C@@H](CC(C)C)C(=O)N[C@@H](C)C(=O)N[C@H](C(=O)N[C@@H](CC(C)C)C(=O)N1CCC[C@H]1C(=O)N[C@@H](CCCNC(=N)N)C(=O)N[C@H](C(=O)N[C@@H](CCC(=O)O)C(=O)N[C@H](C(=O)NCC(=O)N[C@@H](CO)C(=O)NCC(=O)N[C@@H](CO)C(=O)N1CCC[C@H]1C(N)=O)[C@@H](C)O)[C@@H](C)O)[C@@H](C)O)[C@@H](C)O)[C@@H](C)O)[C@@H](C)CC [Compound 152]
129	–	20	2.9	774	6.31	CC[C@H](C)[C@H](NC(=O)[C@H](CCC(=O)O)NC(=O)[C@H](CCC(=O)O)NC(=O)[C@H](CC(C)C)NC(=O)[C@H](CC(C)C)NC(=O)[C@@H](NC(=O)[C@H](CO)NC(=O)[C@H](Cc1ccc(O)cc1)NC(=O)[C@H](CC(=O)O)NC(=O)[C@H](CO)NC(=O)[C@@H](NC(=O)[C@H](Cc1ccccc1)NC(=O)[C@@H](NC(=O)CNC(=O)[C@H](CCC(=O)O)NC(=O)C(C)(C)NC(=O)[C@@H](N)Cc1ccc(O)cc1)[C@@H](C)O)[C@@H](C)O)[C@@H](C)CC)C(=O)N[C@@H](C)C(=O)N[C@@H](C)C(=O)N[C@@H](CCCNC(=N)N)C(=O)N[C@@H](CCC(=O)O)C(=O)N[C@@H](Cc1ccccc1)C(=O)N[C@H](C(=O)N[C@@H](CCC(=O)O)C(=O)N[C@@H](Cc1c[nH]c2ccccc12)C(=O)N[C@@H](CC(C)C)C(=O)N[C@@H](CC(C)C)C(=O)N[C@@H](C)C(=O)NCC(=O)NCC(=O)N1CCC[C@H]1C(=O)N[C@@H](CO)C(=O)N[C@@H](CO)C(=O)NCC(=O)N[C@@H](C)C(=O)NCC(=O)N[C@@H](CCC(N)=O)C(=O)N[C@@H](C)C(=O)N1CCC[C@H]1C(=O)NCC(=O)N[C@@H](CCC(N)=O)C(=O)N[C@@H](C)C(=O)N1CCC[C@H]1C(=O)NCC(=O)N[C@@H](C)C(=O)N[C@@H](CO)C(=O)N[C@@H](Cc1c[nH]cn1)C(=O)N[C@@H](CC(C)C)C(=O)N[C@@H](CO)C(=O)N[C@H](C(=O)N[C@@H](C)C(=O)N[C@@H](CCC(N)=O)C(=O)N[C@H](C(=O)N[C@@H](CCC(N)=O)C(=O)N[C@@H](CCCNC(=N)N)C(=O)N[C@@H](CC(C)C)C(=O)N[C@@H](CO)C(=O)N[C@@H](C)C(=O)N[C@@H](CCC(=O)O)C(=O)N[C@@H](CC(C)C)C(=O)N[C@@H](Cc1c[nH]cn1)C(=O)N[C@@H](CCCCNC(=O)COCCOCCNC(=O)COCCOCCNC(=O)CC[C@H](NC(=O)CCCCCCCCCCCCCCCCCCC(=O)O)C(=O)O)C(=O)N[C@@H](CC(C)C)C(=O)N[C@@H](C)C(=O)N[C@H](C(=O)N[C@@H](CC(C)C)C(=O)N1CCC[C@H]1C(=O)N[C@@H](CCCNC(=N)N)C(=O)N[C@H](C(=O)N[C@@H](CCC(=O)O)C(=O)N[C@H](C(=O)NCC(=O)N[C@@H](CO)C(=O)NCC(=O)N[C@@H](CO)C(=O)N1CCC[C@H]1C(N)=O)[C@@H](C)O)[C@@H](C)O)[C@@H](C)O)[C@@H](C)O)[C@@H](C)O)[C@@H](C)CC [Compound 120]
